“And” between values parts separate entries of the source, which are not always exact repeats. Equal entries are not always repeated.
How the values were obtained:
lymphocytes = assay: Mitogenic proliferation of splenocytes (3H-thymidine incorporation); assay type: in vivo, BALB/c mice
Protocol: Splenocytes were diluted to a concentration of 1×10^6 cells/ml in complete RPMI media. Aliquots of 100 μl were transferred into a 96 well flat bottom plate. Mitogen stock solutions were prepared at a concentration of 1 mg/ml in D-PBS and frozen at −20° C. Working solution were prepared freshly in complete RPMI media at the following concentration (10×): 500 μg/ml PHA, 50 μg/ml concanavalin A (con A), and 50 μg/ml LPS. Aliquots of 100 μl of each mitogens were transferred in triplicate in the corresponding wells. Final concentration (1×) in each well was 50 μg/ml PHA, 5 μg/ml con A, and 5 μg/ml LPS. For negative control, 100 μl of complete RPMI media was added in triplicate, instead of the mitogens. Cells were incubated for a total of 72 hours in 37° C., 5% CO2, humidified incubator. Twenty hours before the end of the incubation, 1 μCi per well of ^3H-thymidine was added to each well. Cells were harvested using a Harvester® 96 from Tomtec. Filters were transferred into scintillation vials. Scintillation liquid, 4 ml was added to each vial. Radioactivity was counted using Beckman LS-6500 Beta counter. The results were expressed in CPM. The mean and standard deviation of triplicate samples are calculated. Results are expressed as stimulation index (SI) as follows:
[formula] • where experimental value=with mitogens (PHA, ConA and LPS) and control value=with RPMI. For each mitogen, results were compared and Student's T test was performed between the control group and the treated group. The p value was calculated for statistical significance.
The lymphoproliferative response is a widely studied function of T and B lymphocytes. Three different mitogens with different specificity for different lymphocyte subsets were used. PHA and ConA are standard mitogens that stimulate mice T cells and LPS is a mitogen which stimulates B cells. Results are expressed in proliferation capacity (Table 10 and FIGS. 5 and 6). […] This potential may present some therapeutic application against some immune dysfunctions where the lymphoproliferative response is impaired (e.g., viral infections).

[1] = system: antibody production to keyhole limpet hemocyanin (KLH); assay: Humoral response to KLH immunization, immunodot blot; assay type: in vivo, BALB/c mice
Protocol: To perform KLH immunization, KLH was prepared in sterile D-PBS at a concentration of 150 μg in 0.1 ml. Animals were injected 0.1 ml of the preparation subcutaneously. After 15 days and just before sacrifice, a blood sample was collected from each mouse by cardiac puncture. Serum was obtained by centrifugation, aliquoted and frozen (−20° C.) until used.
Immunodot blot assay was used to assess antibody production. Hybond-ECL membrane was used in the immunodot blot assay. A volume of 2 μl of different concentrations (0, 10, 50, 250 μg/ml) of KLH antigen was placed on the dry membrane. Antigen dots were allowed to dry overnight at 4° C. Membrane was blocked with a dry milk solution for 1 hour. Two μl of the antiserum diluted ½, ¼, 1/16, 1/32, 1/64, 1/128 and undiluted was put on the blot and incubated for 1 hour. The membrane was washed with TES buffer solution 3 times. Goat anti-mouse IgG antibodies coupled with horseradish peroxidase were put on the blot and incubated for 1 hour. The membrane was washed with TBS buffer solution 3 times. […] Revelation time was 1 minute. The membrane was exposed for 18 hours to film.
The lower serum dilution where an antibody response is apparent was chosen to calculate antibody titer. The antibody titer corresponded to the inverse of the dilution. The titer was converted to log2, e.g., 8=3 (log2). Results were compared and Student's T test was performed between the control group and the treated group. The p value was calculated for statistical significance.
For this experiment, animals were treated with CPDS for 30 days, immunized subcutaneously with keyhole limpet hemocyanin (KLH) and treated an additional 15 days, at which point blood was collected for antibody detection. […] The antibody titer to KLH was 1/4.29 (2.13 log2) for control group and 1/2.00 (1.00 log2) for CPDS-treated group. The decrease in the antibody production may be partially related to the significant decrease in the B cell population observed in the immunophenotyping results. However, no loss of reactivity was observed from the lymphoproliferative assay when B cells were stimulated with LPS.

[2] = system: feline immunodeficiency virus (FIV); assay: CPDS in an FIV-positive cat with FIDS symptoms (Example 10); assay type: in vivo
From the text: A very ill, young, spayed male cat ws presented with symptoms of feline immunodeficiency syndrome (FIDS). He had fever, diarrhea, and his glands were swollen. His coat was dull and the cat was listless.
His blood tested positive for feline immunodeficiency syndrome (FIV), as determined by ELISA testing with feline immunodeficiency virus antibody from Indexx Laboratories (Westbrook, Me.). The cat's weight upon presentation was 9.5 lbs.
Treatment of the cat with CPDS commenced the same day with a daily dose of 280 mg CPDS in the cat's diet. The regimen was continued for 30 days. […] The hair on the cat's muzzle and back was still thin. CPDS treatment was continued at 140 mg/day for another 60 days. […] His coat was rich and shiny, his eyes became bright, and his behavior was normal for a spayed male cat. The cat's weight after 60 days of treatment was 10.2 lbs, a gain of about 300 grams.

[3] = 30 days on CPDS diet vs normal diet
[4] = 30 days on CPDS diet, Mean ± S.D.
[5] = Group 6, 6 days on CPDS diet, Mean ± S.D.
[6] = FIV-positive cat, end of thirty days at 280 mg CPDS daily

SMILES: O=C(O)c1ccc(SSc2ccc(C(=O)O)cn2)nc1 [CPDS, 6,6′-dithiodinicotinic acid]
- Mitogenic Proliferation (SI), LPS, effect of CPDS diet (lymphocytes; 6 days, n=3): No effect
- Mitogenic Proliferation (SI), PHA, effect of CPDS diet (lymphocytes; 6 days, n=3): No effect
- Mitogenic Proliferation, LPS (lymphocytes; 30 days on CPDS diet (samples G2-1 to G2-8), individual mice, 5 μg/ml LPS): 3799.3 and 1426.0 and 4760.0 and 4304.7 and 842.0 and 1407.3 and 2438.0 and 2039.3
- Mitogenic Proliferation, CON A (lymphocytes; 30 days on CPDS diet (samples G2-1 to G2-8), individual mice, 5 μg/ml con A): 6928.7 and 2621.3 and 11240.7 and 8041.3 and 915.3 and 1023.3 and 3308.7 and 4993.3
- Mitogenic Proliferation, PHA (lymphocytes; 30 days on CPDS diet (samples G2-1 to G2-8), individual mice, 50 μg/ml PHA): 3565.3 and 1168.0 and 2175.3 and 2300.0 and 603.3 and 717.3 and 1652.6 and 886.0
- Mitogenic Proliferation, No stimulation (lymphocytes; 30 days on CPDS diet (samples G2-1 to G2-8), individual mice, no unit in table, method: CPM): 78.0 and 69.3 and 66.7 and 82.0 and 57.3 and 72.7 and 72.0 and 58.7
- Mitogenic Proliferation, CON A, Variation(%) (lymphocytes; [3]): 210.2%
- Mitogenic Proliferation, LPS, Variation(%) (lymphocytes; [3]): 82.0%
- Mitogenic Proliferation, No stimulation, Variation(%) (lymphocytes; [3]): 0.2%
- Mitogenic Proliferation, PHA, Variation(%) (lymphocytes; [3]): 144.4%
- Mitogenic Proliferation, CON A (lymphocytes; [4]): 4984.1 ± 3641
- Mitogenic Proliferation, LPS (lymphocytes; [4]): 2627.1 ± 1475
- Mitogenic Proliferation, No stimulation (lymphocytes; [4]): 69.6 ± 8
- Mitogenic Proliferation, PHA (lymphocytes; [4]): 1633.4 ± 1010
- Mitogenic Proliferation (SI), LPS, effect of CPDS diet (lymphocytes; 30 days, n=8, arrow image = increase): tendency to increase
- Mitogenic Proliferation, CON A (lymphocytes; [5]): 4441.8 ± 1733
- Mitogenic Proliferation, LPS (lymphocytes; [5]): 937.9 ± 232
- Mitogenic Proliferation, No stimulation (lymphocytes; [5]): 50.5 ± 23
- Mitogenic Proliferation, PHA (lymphocytes; [5]): 205.3 ± 74
- Mitogenic Proliferation, LPS (lymphocytes; Group 6, 6 days on CPDS diet, individual mice, 5 μg/ml LPS, no unit in table, method: CPM): 1052.0 and 670.0 and 1091.3
- Mitogenic Proliferation, CON A (lymphocytes; Group 6, 6 days on CPDS diet, individual mice, 5 μg/ml con A, no unit in table, method: CPM): 4876.7 and 2532.0 and 5916.7
- Mitogenic Proliferation, PHA (lymphocytes; Group 6, 6 days on CPDS diet, individual mice, 50 μg/ml PHA, no unit in table, method: CPM): 237.3 and 120.0 and 258.7
- Mitogenic Proliferation, No stimulation (lymphocytes; Group 6, 6 days on CPDS diet, individual mice, no unit in table, method: CPM): 78.0 and 34.7 and 38.7
- Proliferation with all three mitogens (PHA, ConA, LPS), in words (lymphocytes; after 6 days of treatment with CPDS): tendency towards an increase
- Humoral response to KLH, variation (%) ([1]; Group 4, 45 days on CPDS diet vs Group 3): −52.94%
- Serum dilution (lowest with apparent antibody response to KLH) ([1]; Group 4, 45 days on CPDS diet, KLH s.c. at day 30, serum 15 days later, individual mice): 1/4 (4×) and 0 (4×)
- dilution log 2 (antibody titer to KLH) ([1]; Group 4, 45 days on CPDS diet, Mean ± S.D.): 1.00 log 2 and 1.00 ± 1.07 log 2
- dilution log 2 (antibody titer to KLH) ([1]; Group 4, 45 days on CPDS diet, individual mice): 2 log 2 (4×) and 0 log 2 (4×)
- Cat's health ([2]; FIV-positive cat, 280 mg CPDS daily in diet, after a few days): showed improvement
- Symptoms (fever, diarrhea, swollen glands) [2, 6]: fever had subsided, the diarrhea was gone, its glands were no longer swollen
- Test for the FIDS antibody [2, 6]: still tested positive
- Overall state of the cat ([2]; after 30 days at 280 mg/day and another 60 days at 140 mg/day): appeared to be healed
- Weight gain of the cat ([2]; after 60 days of treatment vs presentation): about 300 grams
- Cat's weight after treatment ([2]; after 60 days of treatment, 9.5 lbs upon presentation): 10.2 lbs
